From the NIST ThermoML archive (doi:10.1016/j.jct.2008.11.008)
Numbers after ± are expanded uncertainties.

Assay: molar enthalpy of vaporization or sublimation
Settings: 298.15 K; Liquid; Calvet microcalorimetry

Row | molar enthalpy [kcal/mol] | Structure (SMILES)
1 | 14.8 ± 0.621 | COc1ccccc1Br [1-bromo-2-methoxybenzene]
2 | 13.9 ± 0.574 | COc1ccc(Br)cc1 [1-bromo-4-methoxybenzene]
3 | 13.9 ± 0.574 | COc1cccc(Br)c1 [1-bromo-3-methoxybenzene]
